Laboratory results published in patent US6573060B1, “Methods and compositions for targeting DNA metabolic processes using aminoglycoside derivatives” (University of Virginia Patent Foundation, priority 1997, dated 2003).

How the values were obtained:
Leishmania chagasi = Leishmania chagasi culture growth; format: cell-based; details: FIGS. 12A-B
Experimental: Leishmania chagasi cells were grown in HO-MEM medium to a cell density of 1×10^6 cells/ml. 50 μl of drug were mixed with 50 μl of media in the first well of a 96 well micro titer plate. Serial, two-fold dilutions were then made by taking 50 μl of the solution in the first well and diluting it into the second well and this process was repeated through the 12 wells of an entire row of the 96 well plate. This gives a 2-fold difference in the concentration of the drug between the wells in that row. This procedure was repeated for all the inhibitors. 50 μl of Leishmania chagasi, at a cell density of 1×10^6 cells/ml, was then added to the wells. The micro titer plate was incubated at 30° C. under anaerobic conditions. Cells were counted under light microscope every 24 hours after addition of drugs.

LNCaP cell line = experiment: MTS cell survival assay, LNCaP prostate cancer cells; format: cell-based; details: Homo sapiens, 120 h, 8 wells, 5 days
Experimental: (§1) The effect of phosphoaminoglycosides on tumor cell growth was tested in cell culture inhibition studies. 5000 cells were plated in a total volume of 50 μl in a 96 well titer plate. After 24 hours, 50 μl of media and drugs, to the required final concentration, were added. The plates were incubated at 37° C. for 5 days. On the 5th day, the fraction of surviving cells was estimated using a non-radioactive cell proliferation assay (CellTiter 96 AQueous Cell Proliferation Assay from Promega).
This is a colorimetric assay that determines the number of viable cells. The assay measures the bioreduction of a tetrazolium compound (3-(4,5-dimethylthiazol-2-yl)-5-(3-carboxymethoxyphenyl)-2-(4-sulfophenyl)-2H-tetrazolium, inner salt; MTS), via an electron coupling reagent (phenazine methosulfate; PMS), to formazan, which is soluble in the tissue culture medium. The absorbance of formazan at 490 nm can be measured from the 96 well assay plate without additional processing. The conversion of MTS into the aqueous soluble formazan is accomplished by dehydrogenase enzymes found in metabolically active cells. The quantity of formazan product as measured by the amount of 490 nm absorbance is directly proportional to the number of living cells in culture. […] 20 μl of PMS/MTS solution was added to the cells and the plates were incubated at 37° C. for 2 hours before measuring the absorbance at 490 nm. […]

PC3 cell line = experiment: MTS cell survival assay, PC3 prostate cancer cells; format: cell-based, human; details: FIG. 8, day five
Experimental: as §1
This is a colorimetric assay that determines the number of viable cells. The assay measures the bioreduction of a tetrazolium compound (3-(4,5-dimethylthiazol-2-yl)-5-(3-carboxymethoxyphenyl)-2-(4-sulfophenyl)-2H-tetrazolium, inner salt; MTS), via an electron coupling reagent (phenazine methosulfate; PMS), to formazan, which is soluble in the tissue culture medium. The absorbance of formazan at 490 nm can be measured from the 96 well assay plate without additional processing. The conversion of MTS into the aqueous soluble formazan is accomplished by dehydrogenase enzymes found in metabolically active cells. The quantity of formazan product as measured by the amount of 490 nm absorbance is directly proportional to the number of living cells in culture. 100 μl of the PMS reagent (Promega) was mixed with 2.0 ml of MTS solution (Promega). 20 μl of PMS/MTS solution was added to the cells and the plates were incubated at 37° C. for 2 hours before measuring the absorbance at 490 nm.
In an initial experiment, four drugs (A-kanamycin, B-phosphokanamycin, C-neomycin, and D-phosphoneomycin) were added to prostate cancer cell cultures in a blind fashion. Two prostate cancer cell lines were incubated with each of the drugs and assayed for cell survivability using the MTS assay (Promega).
5000 cells were grown overnight in media and each respective drug (A-kanamycin, B-phosphokanamycin, C-neomycin, and D-phosphoneomycin) was added on the second day. […] Each point is the average of readings from three wells.

Entamoeba histolytica = Entamoeba histolytica culture growth; format: cell-based; details: 72 h, read-out: concentration that completely kills the cells
Experimental: Entamoeba histolytica HMl-ISS strain was used for the experiment. The cells were grown in tissue culture medium TYI-S-33 containing trypticase, yeast extract, iron and serum along with 100 units/ml penicillin and […] streptomycin sulfate. 500,000 amoebae were incubated in 2 mls of media. The drugs were added to the required final concentration. The total number of amoebae was counted every 24 hours after the addition of drugs using light microscope. Growth was monitored over a period of 72 hours.

CHO non-K1 cells = experiment: DNA replication assay in permeabilized CHO non-K1 cells; format: cell-based; details: phosphokanamycin 100 μM, phosphoneomycin 10 μM (FIG. 7)
Experimental: CHO non-K1 cells were used for the DNA replication assay. Cells were grown to density of 2×10^7 cells/plate in MEM medium supplemented with fetal calf serum. The cells were in log phase and unsynchronized. The plates were washed three times with cold MEM medium and cells were scraped off the plates into eppendorf tubes. The cells were centrifuged at 2000 rpm for 3 mm at 4° C. From each plate approximately 100 μl of cells were obtained. The cell pellet was resuspended in an equal volume of replication buffer [100 mM HEPES (pH 7.8), 0.2 mM dGTP, 0.2 mM DATP, 0.2 mM dTTP, 0.4 mM GTP, 0.4 mM CTP, 0.4 mM UTP, 8 mM ATP, 20 mM MgCl2, 0.2 mg/ml BSA, 2 mM DTT, 30% glycerol]. The cell suspension (20 μl) was aliquoted to individual tubes. Aminoglycosides and phosphoaminoglycosides were then added to the required final concentration. The cells were permeabilized by the addition of 0.5 μl of 20% NP-40 detergent. To monitor replication, 2 μl of α[^32 P] dCTP (3000-6000 Ci/mmole activity) was added. The cells were incubated at 37° C. for 10 min and the reaction was stopped by addition of 200 μl of stop buffer [50 mM TrisCl (pH 8.0), 10 mM EDTA, 400 mM NaCl, 1% SDS]. The cells were further incubated at 37° C. for 2 hours.
The DNA was sheared by passing 5-10 times through a 23 gauge needle. […] After drying, the radioactivity was measured using a liquid scintillation counter (Beckman).

In the case of `NC[C@H]1O[C@H](O[C@H]2[C@H](O)[C@@H](O[C@H]3O[C@H](CO)[C@@H](O)[C@H](N)[C@H]3O)[C@H](N)C[C@@H]2N)[C@H](O)[C@@H](OP(=O)(O)O)[C@@H]1O` [phosphokanamycin, 3′-phosphokanamycin], the “killing of Leishmania cells (in words)” value (Leishmania chagasi) is reported as “clearly effective in killing the cells”, the viability at 100 µM (LNCaP cell line) is reported as 109 ± 9% and the “effect on PC3 cells (in words)” value (PC3 cell line) is reported as “effective in killing the PC3 cells”. For the same molecule, the IC (100 (complete killing)) (Entamoeba histolytica) was 200 µM and the “effect on DNA synthesis (in words)” value (CHO non-K1 cells) was “disrupted DNA synthesis”.
